The nature of assay [1]: HeLa cell cytotoxicity, dose response, cytotoxicity control for MgcRacGAP inhibitor project (AID 624300). It counts as functional.
For the next assay, the target named is T1, Caspase-6 (Homo sapiens, UniProt P55212).
T1 sequence (P55212 whole entry): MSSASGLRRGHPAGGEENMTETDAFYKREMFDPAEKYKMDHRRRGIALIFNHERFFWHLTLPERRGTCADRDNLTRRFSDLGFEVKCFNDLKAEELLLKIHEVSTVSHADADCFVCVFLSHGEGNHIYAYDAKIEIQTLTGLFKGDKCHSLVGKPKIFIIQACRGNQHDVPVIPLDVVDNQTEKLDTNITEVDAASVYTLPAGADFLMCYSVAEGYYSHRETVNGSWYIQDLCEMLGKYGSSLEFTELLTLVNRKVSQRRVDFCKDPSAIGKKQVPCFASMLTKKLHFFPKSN
Nature of the assay: human caspase-6 inhibitors, dose response, biochemical, VEID-R110 fluorescence, cherry-pick (AID 720632).

Assay [2] concerns the target T2, Heat shock factor protein 1 (Mus musculus, UniProt P38532).
T2 sequence (P38532 whole entry): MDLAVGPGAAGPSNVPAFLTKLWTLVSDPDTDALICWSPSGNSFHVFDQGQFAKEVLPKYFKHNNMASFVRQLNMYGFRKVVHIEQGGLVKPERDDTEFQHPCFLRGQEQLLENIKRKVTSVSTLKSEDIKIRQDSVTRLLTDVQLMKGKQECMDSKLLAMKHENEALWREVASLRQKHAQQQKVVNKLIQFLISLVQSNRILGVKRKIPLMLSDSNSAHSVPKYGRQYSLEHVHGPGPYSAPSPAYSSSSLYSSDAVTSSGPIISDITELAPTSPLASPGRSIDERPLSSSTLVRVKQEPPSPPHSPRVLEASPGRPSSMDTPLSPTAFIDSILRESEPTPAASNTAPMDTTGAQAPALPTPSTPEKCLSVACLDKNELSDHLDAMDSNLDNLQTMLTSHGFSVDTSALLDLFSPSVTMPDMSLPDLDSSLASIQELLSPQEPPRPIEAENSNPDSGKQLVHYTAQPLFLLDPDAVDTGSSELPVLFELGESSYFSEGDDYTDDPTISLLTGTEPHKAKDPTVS
Description: inhibition of MG132-induced HSE-luciferase signal, confirmation, cell-based, NIH3T3, luminescence, dose retest (AID 2382).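 Further: NIH3T3 fibroblasts with HSF1-driven luciferase reporter stressed by proteasome inhibitor MG132; luminescence from HSF1-driven luciferase expression after 8 hours of MG132 stress.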 It counts as functional.

Assay [3] has as its target T3, Sentrin-specific protease 8 (Homo sapiens, UniProt Q96LD8).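 Further: kinetic enzyme assay of SENP8 cleaving a Nedd8 protein substrate, dose-response confirmation of screening hits.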
T3 sequence (Q96LD8 whole entry): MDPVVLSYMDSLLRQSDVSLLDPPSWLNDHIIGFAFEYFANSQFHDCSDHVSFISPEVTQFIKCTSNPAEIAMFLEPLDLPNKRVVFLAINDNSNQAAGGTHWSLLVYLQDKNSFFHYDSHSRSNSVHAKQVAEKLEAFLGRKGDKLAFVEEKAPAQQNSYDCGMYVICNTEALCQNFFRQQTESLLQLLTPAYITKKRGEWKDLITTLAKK
It counts as functional.

Assay [4] addresses T4, Replicative DNA helicase DnaB (Mycobacterium tuberculosis, UniProt P9WMR3).
T4 sequence (P9WMR3 whole entry): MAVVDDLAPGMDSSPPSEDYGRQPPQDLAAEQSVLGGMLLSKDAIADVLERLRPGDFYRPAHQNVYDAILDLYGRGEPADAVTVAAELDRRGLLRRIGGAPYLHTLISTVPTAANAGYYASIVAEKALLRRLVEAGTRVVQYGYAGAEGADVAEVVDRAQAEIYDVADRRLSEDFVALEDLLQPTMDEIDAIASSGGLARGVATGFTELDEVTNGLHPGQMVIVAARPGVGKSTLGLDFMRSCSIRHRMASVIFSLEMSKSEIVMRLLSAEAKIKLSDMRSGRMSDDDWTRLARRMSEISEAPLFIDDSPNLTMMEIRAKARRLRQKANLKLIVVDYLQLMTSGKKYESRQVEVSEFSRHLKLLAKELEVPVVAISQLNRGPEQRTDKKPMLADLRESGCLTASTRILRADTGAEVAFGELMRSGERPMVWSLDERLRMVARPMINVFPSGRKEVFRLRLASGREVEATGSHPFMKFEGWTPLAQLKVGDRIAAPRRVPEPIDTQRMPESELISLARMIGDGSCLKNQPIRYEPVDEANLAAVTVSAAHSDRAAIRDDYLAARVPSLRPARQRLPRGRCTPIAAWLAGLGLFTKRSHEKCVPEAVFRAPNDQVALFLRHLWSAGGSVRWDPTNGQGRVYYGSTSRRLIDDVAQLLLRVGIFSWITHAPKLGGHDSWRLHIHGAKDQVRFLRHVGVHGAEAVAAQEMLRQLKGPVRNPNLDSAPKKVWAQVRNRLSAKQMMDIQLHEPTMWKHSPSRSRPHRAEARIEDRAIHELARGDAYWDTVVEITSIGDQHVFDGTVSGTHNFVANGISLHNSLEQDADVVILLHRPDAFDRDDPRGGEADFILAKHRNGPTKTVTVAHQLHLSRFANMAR
Description: DnaB intein splicing inhibitors, dose response, biochemical, cell-free fluorescence (AID 449749). It counts as functional.

Assay [5] deals with Macrophage colony-stimulating factor 1 receptor (Homo sapiens, UniProt P07333). It counts as functional.
The target of assay [6] is Calcium/calmodulin-dependent protein kinase type II subunit alpha (Homo sapiens, UniProt Q9UQM7). Nature of the assay: Navigating the Kinome. Panel member name: CAMK2A. It counts as functional.
Assay [7] addresses Cyclin-dependent kinase 7 (Homo sapiens, UniProt P50613). It counts as functional.
Assay [8] has as its target Dual specificity protein kinase CLK4 (Homo sapiens, UniProt Q9HAZ1). It counts as functional.
The target in assay [9] is Leucine-rich repeat serine/threonine-protein kinase 2 (Homo sapiens, UniProt Q5S007). It counts as functional.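 Further: value from a broad kinome-wide panel profiling study in which LRRK2 was one of the kinases tested.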
Assay [10] has as its target Cyclin-dependent kinase 5 (Homo sapiens, UniProt Q00535). It counts as functional.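 Further: CDK5 measured as one member of a kinase profiling panel.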
The target of assay [11] is T5, Alkaline phosphatase, tissue-nonspecific isozyme (Homo sapiens, UniProt P05186).
T5 sequence (P05186 whole entry): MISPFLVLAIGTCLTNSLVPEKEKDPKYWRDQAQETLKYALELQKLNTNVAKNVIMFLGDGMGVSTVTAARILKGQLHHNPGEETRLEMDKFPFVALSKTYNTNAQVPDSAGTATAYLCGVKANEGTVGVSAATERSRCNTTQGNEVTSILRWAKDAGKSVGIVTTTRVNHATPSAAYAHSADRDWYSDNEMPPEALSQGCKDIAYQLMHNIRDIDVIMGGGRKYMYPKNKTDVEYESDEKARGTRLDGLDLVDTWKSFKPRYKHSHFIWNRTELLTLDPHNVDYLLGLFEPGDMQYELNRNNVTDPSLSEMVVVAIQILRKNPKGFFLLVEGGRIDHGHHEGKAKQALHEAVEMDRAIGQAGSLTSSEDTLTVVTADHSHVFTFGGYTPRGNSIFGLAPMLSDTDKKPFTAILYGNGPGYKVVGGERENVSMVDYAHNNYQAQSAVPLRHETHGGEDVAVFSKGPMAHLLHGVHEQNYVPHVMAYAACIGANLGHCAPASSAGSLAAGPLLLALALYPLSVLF
Nature of the assay: TNAP enzyme activators, dose response, selectivity assay for mouse IAP activator project, biochemical, TNAP isozyme, mouse IAP uHTS hits (AID 488880). It counts as functional.

Calls of active or inactive are those of the source.

Chain of Calcium/calmodulin-dependent protein kinase type II subunit alpha (Q9UQM7 whole entry): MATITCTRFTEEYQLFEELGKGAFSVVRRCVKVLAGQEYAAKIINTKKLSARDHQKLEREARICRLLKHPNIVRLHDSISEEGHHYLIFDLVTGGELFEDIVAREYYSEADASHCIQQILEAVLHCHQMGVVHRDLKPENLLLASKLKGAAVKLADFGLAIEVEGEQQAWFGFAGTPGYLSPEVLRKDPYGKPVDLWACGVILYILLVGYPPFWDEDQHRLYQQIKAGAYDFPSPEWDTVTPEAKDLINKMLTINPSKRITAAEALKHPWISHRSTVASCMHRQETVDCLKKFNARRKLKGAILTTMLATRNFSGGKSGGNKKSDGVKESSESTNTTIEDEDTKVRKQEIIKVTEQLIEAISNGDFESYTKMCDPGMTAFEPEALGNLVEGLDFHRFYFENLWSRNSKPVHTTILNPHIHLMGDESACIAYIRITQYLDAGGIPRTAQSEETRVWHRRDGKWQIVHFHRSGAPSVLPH
Chain of Leucine-rich repeat serine/threonine-protein kinase 2 (Q5S007 whole entry): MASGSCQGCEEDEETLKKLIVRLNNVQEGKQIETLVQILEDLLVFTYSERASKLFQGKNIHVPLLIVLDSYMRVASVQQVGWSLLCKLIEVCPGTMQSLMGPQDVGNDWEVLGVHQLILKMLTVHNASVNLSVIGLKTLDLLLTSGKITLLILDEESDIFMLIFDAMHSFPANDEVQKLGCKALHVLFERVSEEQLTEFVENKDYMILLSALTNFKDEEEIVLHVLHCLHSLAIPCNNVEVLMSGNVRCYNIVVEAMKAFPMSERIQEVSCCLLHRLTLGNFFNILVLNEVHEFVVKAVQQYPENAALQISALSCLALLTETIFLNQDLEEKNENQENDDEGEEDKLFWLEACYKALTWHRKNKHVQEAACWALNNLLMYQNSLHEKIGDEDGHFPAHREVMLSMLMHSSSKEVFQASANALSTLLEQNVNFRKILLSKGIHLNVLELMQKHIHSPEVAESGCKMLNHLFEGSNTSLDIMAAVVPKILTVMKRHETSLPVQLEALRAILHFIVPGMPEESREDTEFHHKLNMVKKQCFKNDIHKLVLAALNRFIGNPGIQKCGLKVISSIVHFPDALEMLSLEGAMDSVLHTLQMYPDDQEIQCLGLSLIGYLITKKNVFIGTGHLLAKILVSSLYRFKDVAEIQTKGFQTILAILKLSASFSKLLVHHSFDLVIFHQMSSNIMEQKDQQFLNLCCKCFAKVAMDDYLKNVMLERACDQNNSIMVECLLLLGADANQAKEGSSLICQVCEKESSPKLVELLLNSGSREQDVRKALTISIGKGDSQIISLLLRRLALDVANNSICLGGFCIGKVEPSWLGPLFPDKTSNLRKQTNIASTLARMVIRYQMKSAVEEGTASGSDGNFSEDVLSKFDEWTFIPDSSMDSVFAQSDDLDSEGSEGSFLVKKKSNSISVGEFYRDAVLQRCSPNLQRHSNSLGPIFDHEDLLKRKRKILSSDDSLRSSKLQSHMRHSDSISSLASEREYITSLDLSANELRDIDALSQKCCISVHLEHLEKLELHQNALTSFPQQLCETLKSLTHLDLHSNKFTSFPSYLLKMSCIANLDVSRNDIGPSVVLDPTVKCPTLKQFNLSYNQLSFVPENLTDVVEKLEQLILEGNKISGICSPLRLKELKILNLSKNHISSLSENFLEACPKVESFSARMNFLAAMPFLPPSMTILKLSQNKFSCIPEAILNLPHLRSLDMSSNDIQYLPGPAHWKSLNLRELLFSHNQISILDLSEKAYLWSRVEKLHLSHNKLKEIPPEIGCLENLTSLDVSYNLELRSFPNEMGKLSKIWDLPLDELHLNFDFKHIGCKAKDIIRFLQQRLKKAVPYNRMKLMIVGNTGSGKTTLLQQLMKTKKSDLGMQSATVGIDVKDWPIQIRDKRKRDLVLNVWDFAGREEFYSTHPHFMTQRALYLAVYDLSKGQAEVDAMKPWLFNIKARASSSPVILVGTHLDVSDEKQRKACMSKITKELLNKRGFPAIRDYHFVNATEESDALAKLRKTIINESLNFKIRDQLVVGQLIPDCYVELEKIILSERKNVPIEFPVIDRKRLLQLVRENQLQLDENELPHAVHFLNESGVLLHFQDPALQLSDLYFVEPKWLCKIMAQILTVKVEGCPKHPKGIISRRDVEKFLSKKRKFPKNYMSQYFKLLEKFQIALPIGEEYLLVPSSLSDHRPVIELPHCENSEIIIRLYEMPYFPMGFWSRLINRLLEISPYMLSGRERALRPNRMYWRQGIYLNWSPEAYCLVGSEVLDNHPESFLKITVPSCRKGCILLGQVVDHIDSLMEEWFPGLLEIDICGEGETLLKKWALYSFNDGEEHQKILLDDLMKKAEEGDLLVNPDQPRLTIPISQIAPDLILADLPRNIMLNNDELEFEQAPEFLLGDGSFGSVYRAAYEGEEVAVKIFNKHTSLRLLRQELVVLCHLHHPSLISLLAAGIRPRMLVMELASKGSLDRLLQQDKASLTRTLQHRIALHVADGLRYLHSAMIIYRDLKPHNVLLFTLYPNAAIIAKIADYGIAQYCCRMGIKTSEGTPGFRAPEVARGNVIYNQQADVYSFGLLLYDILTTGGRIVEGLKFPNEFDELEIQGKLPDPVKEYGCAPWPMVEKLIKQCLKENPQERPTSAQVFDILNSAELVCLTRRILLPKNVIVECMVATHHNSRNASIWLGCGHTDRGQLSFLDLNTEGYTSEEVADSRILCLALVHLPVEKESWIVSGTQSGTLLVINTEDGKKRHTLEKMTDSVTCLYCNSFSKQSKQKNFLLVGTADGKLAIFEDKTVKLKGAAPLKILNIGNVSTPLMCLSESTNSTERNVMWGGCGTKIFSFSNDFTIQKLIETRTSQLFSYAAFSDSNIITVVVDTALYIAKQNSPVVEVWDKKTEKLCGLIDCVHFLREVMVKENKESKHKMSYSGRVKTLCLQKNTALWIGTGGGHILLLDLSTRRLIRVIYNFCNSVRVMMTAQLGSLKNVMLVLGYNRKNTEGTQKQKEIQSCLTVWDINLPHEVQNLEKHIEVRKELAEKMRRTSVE
Chain of Cyclin-dependent kinase 7 (P50613 whole entry): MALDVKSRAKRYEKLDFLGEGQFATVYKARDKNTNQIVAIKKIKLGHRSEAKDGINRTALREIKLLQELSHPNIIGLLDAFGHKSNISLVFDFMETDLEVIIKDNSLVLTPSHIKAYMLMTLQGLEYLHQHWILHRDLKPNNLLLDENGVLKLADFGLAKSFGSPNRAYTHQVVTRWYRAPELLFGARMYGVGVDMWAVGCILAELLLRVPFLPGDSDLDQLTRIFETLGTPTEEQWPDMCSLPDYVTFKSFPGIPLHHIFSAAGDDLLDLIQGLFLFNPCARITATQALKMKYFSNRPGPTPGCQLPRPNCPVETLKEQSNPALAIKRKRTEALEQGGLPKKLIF
Chain of Macrophage colony-stimulating factor 1 receptor (P07333 whole entry): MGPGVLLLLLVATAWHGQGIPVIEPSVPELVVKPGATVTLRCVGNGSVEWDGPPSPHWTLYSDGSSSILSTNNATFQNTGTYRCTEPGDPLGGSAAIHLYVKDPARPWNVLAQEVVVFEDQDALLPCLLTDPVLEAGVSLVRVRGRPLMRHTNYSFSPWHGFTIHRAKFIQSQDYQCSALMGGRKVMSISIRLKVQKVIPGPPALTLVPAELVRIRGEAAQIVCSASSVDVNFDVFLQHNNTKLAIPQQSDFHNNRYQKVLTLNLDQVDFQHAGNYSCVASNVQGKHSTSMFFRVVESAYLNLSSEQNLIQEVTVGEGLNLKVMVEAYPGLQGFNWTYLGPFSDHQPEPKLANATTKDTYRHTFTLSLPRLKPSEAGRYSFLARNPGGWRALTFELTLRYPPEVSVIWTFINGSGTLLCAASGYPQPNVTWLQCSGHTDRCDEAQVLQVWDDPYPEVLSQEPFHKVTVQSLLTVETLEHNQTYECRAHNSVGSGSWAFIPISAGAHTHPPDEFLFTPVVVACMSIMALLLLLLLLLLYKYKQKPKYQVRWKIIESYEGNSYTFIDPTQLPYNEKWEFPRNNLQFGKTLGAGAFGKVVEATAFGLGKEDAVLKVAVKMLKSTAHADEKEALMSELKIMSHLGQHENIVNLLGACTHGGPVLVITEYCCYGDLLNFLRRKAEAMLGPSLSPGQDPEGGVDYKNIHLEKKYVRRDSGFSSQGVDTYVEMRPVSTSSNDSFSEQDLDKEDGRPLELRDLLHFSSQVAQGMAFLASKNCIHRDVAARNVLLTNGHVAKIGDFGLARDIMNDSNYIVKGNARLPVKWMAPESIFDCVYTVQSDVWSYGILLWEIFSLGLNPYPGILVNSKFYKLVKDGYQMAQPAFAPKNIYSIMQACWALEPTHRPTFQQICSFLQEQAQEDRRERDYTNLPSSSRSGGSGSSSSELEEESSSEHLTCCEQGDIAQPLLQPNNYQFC
Chain of Dual specificity protein kinase CLK4 (Q9HAZ1 whole entry): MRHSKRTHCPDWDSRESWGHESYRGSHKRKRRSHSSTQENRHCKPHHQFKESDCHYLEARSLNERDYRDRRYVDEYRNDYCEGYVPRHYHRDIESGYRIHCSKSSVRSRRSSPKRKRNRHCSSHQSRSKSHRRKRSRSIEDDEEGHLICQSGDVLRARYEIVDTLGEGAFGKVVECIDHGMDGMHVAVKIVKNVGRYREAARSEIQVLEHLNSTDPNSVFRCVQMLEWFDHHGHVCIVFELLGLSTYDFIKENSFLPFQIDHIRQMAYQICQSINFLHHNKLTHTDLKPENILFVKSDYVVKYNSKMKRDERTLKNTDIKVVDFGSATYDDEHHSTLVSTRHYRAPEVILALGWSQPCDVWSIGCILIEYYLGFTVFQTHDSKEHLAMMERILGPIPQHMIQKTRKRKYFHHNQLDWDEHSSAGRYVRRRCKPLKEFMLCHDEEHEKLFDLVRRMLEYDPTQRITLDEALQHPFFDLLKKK
Chain of Cyclin-dependent kinase 5 (Q00535 whole entry): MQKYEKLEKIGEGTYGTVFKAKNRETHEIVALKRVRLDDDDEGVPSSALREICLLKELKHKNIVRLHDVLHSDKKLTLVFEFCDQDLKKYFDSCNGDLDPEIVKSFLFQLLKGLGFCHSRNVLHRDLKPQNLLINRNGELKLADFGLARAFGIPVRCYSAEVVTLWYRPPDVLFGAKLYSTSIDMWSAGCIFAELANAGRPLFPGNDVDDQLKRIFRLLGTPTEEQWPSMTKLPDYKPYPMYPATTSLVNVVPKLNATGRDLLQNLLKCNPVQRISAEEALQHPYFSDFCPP

On to `CC(=O)N(C1=C(Cl)C(=O)c2ccccc2C1=O)c1ccc(C(=O)O)cc1`, for which the CC50 (usually the concentration giving 50% cytotoxicity) in [1] is 36100 nM (active).
On to `CC1(C)C=C2C(=NN(c3ccccc3)C(N)=C2C#N)CO1`, for which the AC50 (as a rule, the concentration at which the activity in the assay is half-maximal) is 1070 nM (active) at Caspase-6 and > 380000 nM (inconclusive) in assay [4]. Also, the concentration giving a half-maximal response (EC50) – broadly, the concentration giving half of the maximal effect – in assay [2] was > 195000 nM (not active). Further, the IC50 – broadly, the concentration at which inhibition is half-maximal – in assay [3] is 17.3 nM (active).
For the compound `Cc1ccc(-c2cc3nc(Br)cnc3[nH]2)cc1`, the Ki (as a rule, a dissociation constant, usually derived from enzyme kinetics or from competition with a known ligand) in assay [5] is > 2510 nM (inactive); in assay [6], > 7940 nM (inactive); in [7], 158 nM (active); in assay [8], 100 nM (active); in assay [9] it was > 2510 nM (inactive); in assay [10], 7.94 nM (active).
Turning to `O=C1C=C(O)c2c(O)cc(O)c(O)c2C1=O`, the EC50 in assay [11] is > 100000 nM (inactive).
